# According to patent US20260265694A1, “USE OF A VITISIN COMPOUND FOR THE PRODUCTION OF HEMATOPOIETIC CELLS” (ETABLISSEMENT FRANCAIS DU SANG, priority 2022, published 2026):
# Legend:
# [1] = tested on: peripheral blood CD34+ cells; assay: ERYTHRO 2 PROTOCOL: three-phase erythrocyte differentiation; type: cell-based, human; settings: peripheral blood CD34+ cells in homeostasis, 10 μM
# Description: (§1) This protocol was applied to CD34^+ cells. Phase 1 of this protocol was in particular applied to BFU-E cells. This protocol was adapted from Vlaski et al. (Experimental Hematology 2009; 37:573-584).
# (§2) The ex vivo erythrocyte production was established on a 28-day cell culture and involves three phases, namely 1) amplification of primitive erythrocyte progenitors, then 2) differentiation of said progenitors into erythrocyte precursors, and finally 3) the terminal stage of maturation with cell enucleation and development of mature erythrocytes.
# (§3) i. Detailed Description of the Three Phases of the Protocol • Phase I of the protocol starts on DO with the seeding of 10^4 cells/mL in 5 mL of supplemented IMDM medium as defined below (see section ii). On day 4, dilution of the culture is performed by recovering 3 mL, which is replaced with the same volume of fresh medium. […] From day 11 to the end of the process, the cells are placed on a layer of mesenchymal stromal cells (MSCs) (coculture), allowing terminal maturation into functional enucleated cells by virtue of the contact between stromal cells and erythrocyte precursors. Suspended erythrocyte cells are seeded at a concentration of 3×10^5/ml and co-cultured from day 11 to day 15 in fresh medium with cytokines (SCF, IL-3, EPO and HC) and 5% fetal calf serum (FCS) required for MSCs. On day 15, the suspended erythrocyte cells are removed from culture, washed, then reseeded onto a new adherent layer of MSCs and cultured for a further four days in 2 mL of fresh medium containing only EPO. • Phase III of the protocol begins on day 19. At this stage, the cells complete their maturation by the enucleation of orthochromatic erythroblasts to form reticulocytes, leading to the formation of erythrocytes. On day 19, the cells are washed and spread on a new layer of MSCs in 2 mL of fresh cytokine-free medium. On day 23, the cultures are fed with fresh medium until day 28, corresponding to the last day of culture in the erythropoiesis protocol. ii. Description of the Culture Medium
# (§4) The cells are incubated in Iscove's Modified Dulbecco Medium (IMDM_PAN BIOTECH) supplemented with various reagents to obtain a medium promoting the growth of cells committed to the erythrocyte lineage, namely: • L-Glutamine (4 mM), • Streptomycin and penicillin (1%), • Inositol (40 μg/mL), • Folic acid (10 μg/mL), • Mono-thioglycerol (1.6×10^−4 M), • Transferrin (120 μg/mL), • Insulin (10 μg/mL), N • Iron nitrate (90 ng/mL), • Iron sulfate (900 ng/mL) • Human serum albumin (10 mg/ml).
# (§5) After preparation of the culture medium, cytokines are added extemporaneously to the culture medium: • Stem Cell Factor (SCF) at 100 ng/mL, • Interleukin-3 (IL-3) at 5 ng/mL, • Erythropoietin (EPO) at 3 IU/mL, • Hydrocortisone (HC) at 10^−6 M. The CD34^+ cells are incubated at 20% O2 and 5% CO2 at 37° C. for 28 days. iii. Description of the Culture Conditions Applied In order to test the effect of vitisin B in this context, various conditions were defined.
# (§6) • CTRL condition: Absence of vitisin B throughout the entire protocol. • Condition I: Presence of vitisin B (10 μM) during phase I of the protocol. • […]: Presence of vitisin B (10 μM) during phases I and II of the protocol. • Condition III: Presence of vitisin B (10 μM) during the three phases of the protocol.
# (§7) Analyses are performed on cells from each condition. The differentiation and maturation of erythrocyte cells are monitored by quantifying progenitors, analyzing the expression of GPA and CD71 markers, and also by morphological analysis.
# (§8) During and at the end of the various erythrocyte differentiation protocols, cell proliferation and cell differentiation are analyzed. Cell proliferation is evaluated by counting of cells on Malassez slides, with Trypan blue exclusion of dead cells. […]
# [2] = tested on: placental blood CD34+ cells; assay: as above; type: cell-based, human
# Description: as §1, §2, §3, §4, §5, §6, §7, §8
smiles,measurement,setting,value
"Oc1ccc(C2Oc3ccc(/C=C/c4cc(O)cc5c4[C@H](c4cc(O)cc(O)c4)[C@@H](c4ccc(O)cc4)O5)cc3C2c2cc(O)cc3c2C(c2cc(O)cc(O)c2)C(c2ccc(O)cc2)O3)cc1 (stereo in doubt) [vitisin B, 5-[(2R,2'S,3R,3'S)-5-[(1E)-2-[(2S,3S)-3-(3,5-Dihydroxyphenyl)-2,3-dihydro-6-hydroxy-2-(4-hydroxyphenyl)-4-benzofuranyl]ethenyl]-2,2′,3,3′-tetrahydro-6′-hydroxy-2,2′-bis(4-hydroxyphenyl)[3,4′-bibenzofuran]-3′-yl]-1,3-benzenediol]",cell proliferation from the transition to phase II,[1],sharp increase
same,percentage of cells with the phenotype CD71negGPA+,"[2]; 10 μM, versus CTRL, FIG. 6A",increases
same,cell proliferation in phase I,"[2]; Days 0 to 11, 10 μM, versus CTRL, FIG. 5",similar
same,number of cells relative to the control condition (CTRL),"[2]; condition I: vitisin B 10 μM during phase I only, FIG. 5",1.5 times
same,cells expressing GPA,"[2]; day 8 of culture, stated without distinguishing conditions",less than 20%
same,cells expressing GPA,"[2]; day 28, 10 μM (CTRL 40%), FIG. 6A",more than 50%
same,cell proliferation from the transition to phase II,"[2]; from Day 11, peak on day 21, 10 μM, conditions I, II, III, FIG. 5",sharp increase
same,absolute number of cells with the phenotype CD71negGPA+,"[2]; vitisin B 10 μM in phase I, FIG. 6B",increases
